Experiments:
Type in all cases: in vivo
[1] = system: AMARE (Amaranthus retoflexus, redroot pigweed); assay: greenhouse herbicidal test, post-emergence, AMARE; conditions: post-emergence method, application rate 0.5 kg/ha, scale from 0 to 100
Description: (§1) The culture containers used were plastic flowerpots containing loamy sand with approximately 3.0% of humus as the substrate. The seeds of the test plants were sown separately for each species.
(§2) For the post-emergence treatment, the test plants were first grown to a height of 3 to 15 cm, depending on the plant habit, and only then treated with the active ingredients which had been suspended or emulsified in water. For this purpose, the test plants were either sown directly and grown in the same containers, or they were first grown separately as seedlings and transplanted into the test containers a few days prior to treatment.
(§3) Depending on the species, the plants were kept at 10-25° C. or 20-35° C. The test period extended over 2 to 4 weeks. During this time, the plants were tended, and their response to the individual treatments was evaluated.
(§4) Evaluation was carried out using a scale from 0 to 100. 100 means no emergence of the plants, or complete destruction of at least the aerial moieties, and 0 means no damage, or normal course of growth. A good herbicidal activity is given at values of at least 70 and a very good herbicidal activity is given at values of at least 85.
(§5) The plants used in the greenhouse experiments belonged to the following species: […]

[2] = system: SETVI (Setaria viridis, green foxtail); assay: greenhouse herbicidal test, post-emergence, SETVI; conditions: post-emergence method, application rate 0.5 kg/ha, scale from 0 to 100
Description: as §1, §2, §3, §4, §5

[3] = system: CHEAL (Chenopodium album, common lambsquarters); assay: greenhouse herbicidal test, post-emergence, CHEAL; conditions: post-emergence method, application rate 0.5 kg/ha, scale from 0 to 100
Description: as §1, §2, §3, §4, §5

[4] = system: LOLMU (Lolium multiflorum, Italian ryegrass); assay: greenhouse herbicidal test, post-emergence, LOLMU; conditions: post-emergence method, application rate 0.5 kg/ha, scale from 0 to 100
Description: as §1, §2, §3, §4, §5

[5] = system: CHEAL (Chenopodium album, common lambsquarters); assay: greenhouse herbicidal test, pre-emergence, CHEAL; conditions: pre-emergence method, application rate 0.5 kg/ha, scale from 0 to 100
Description: as §1
(§6) For the pre-emergence treatment, the active ingredients, which had been suspended or emulsified in water, were applied directly after sowing by means of finely distributing nozzles. The containers were irrigated gently to promote germination and growth and subsequently covered with transparent plastic hoods until the plants had rooted. This cover caused uniform germination of the test plants, unless this has been impaired by the active ingredients.
as §3, §4, §5

[6] = system: SETVI (Setaria viridis, green foxtail); assay: greenhouse herbicidal test, pre-emergence, SETVI; conditions: pre-emergence method, application rate 0.5 kg/ha, scale from 0 to 100
Description: as §1, §6, §3, §4, §5

[7] = system: APESV (Apera spica-venti, windgrass); assay: greenhouse herbicidal test, post-emergence, APESV; conditions: post-emergence method, application rate 0.5 kg/ha, scale from 0 to 100
Description: as §1, §2, §3, §4, §5

[8] = system: GALAP (Galium aparine, catchweed bedstraw); assay: greenhouse herbicidal test, post-emergence, GALAP; conditions: post-emergence method, application rate 0.5 kg/ha, scale from 0 to 100
Description: as §1, §2, §3, §4, §5

SMILES | herbicidal activity against AMARE [1] | herbicidal activity against SETVI [2] | herbicidal activity against CHEAL [3] | also measured
CN1C(=O)C(C)(Cc2ccccc2)N(C)C(=O)C1=Cc1ccccc1[N+](=O)[O-] (mixture of isomers) [Example 26] | good to very good | good to very good |  | 
CN1C(=O)C(C)(Cc2ccccc2)N(C)C(=O)C1=Cc1ccccc1C#N (racemic) [Example 7] | good to very good | good to very good | good to very good | 
CN1C(=O)C(C)(Cc2ccccc2)N(C)C(=O)C1=Cc1ccccc1Br (racemic) [Example 10] |  | good to very good |  | herbicidal activity against LOLMU [4]: good (A good herbicidal activity is given at values of at least 70)
CN1C(=O)C(C)(Cc2ccccc2)N(C)C(=O)C1=Cc1c(Cl)cccc1Br (racemic) [Example 11] | good to very good | good to very good | good to very good | 
CN1C(=O)C(C)(Cc2ccccc2)N(C)C(=O)C1=Cc1c(F)cccc1C#N (racemic) [Example 12] | good to very good | good to very good | good to very good | 
CN1C(=O)C(C)(Cc2ccccc2)N(C)C(=O)C1=Cc1c(Cl)cccc1C#N (racemic) [Example 13] | good to very good | good to very good | good to very good | 
COc1cccc(C#N)c1C=C1C(=O)N(C)C(C)(Cc2ccccc2)C(=O)N1C (racemic) [Example 14] |  | good to very good | good to very good | 
Cc1cccc(C#N)c1C=C1C(=O)N(C)C(C)(Cc2ccccc2)C(=O)N1C (racemic) [Example 16] | good to very good | good to very good | good to very good | 
CN1C(=O)C(C)(Cc2ccccc2)N(C)C(=O)C1=Cc1c(C#N)ccc(F)c1F (racemic) [Example 18] | good to very good | good to very good | good to very good | 
CC(C)C1(Cc2ccccc2)C(=O)N(C)C(=Cc2ccccc2C#N)C(=O)N1C (racemic) [Example 24] | good to very good |  |  | 
CN1C(=O)C(CO)(Cc2ccccc2)N(C)C(=O)C1=Cc1ccccc1C#N (racemic) [Example 25] |  | good to very good | good to very good | herbicidal activity against CHEAL [5]: good (A good herbicidal activity is given at values of at least 70); herbicidal activity against SETVI [6]: good (A good herbicidal activity is given at values of at least 70)
CCc1cccc(C#N)c1C=C1C(=O)N(C)C(C)(Cc2ccccc2)C(=O)N1C (racemic) [Example 29] |  | good to very good |  | 
CN1C(=O)C(C)(Cc2ccccc2)NC(=O)C1=Cc1ccccc1C#N (racemic) [Example 39] | good to very good | good to very good | good to very good | 
COc1cccc(Br)c1C=C1C(=O)N(C)C(C)(Cc2ccccc2)C(=O)N1C (racemic) [Example 43] | good to very good |  |  | herbicidal activity against APESV [7]: good (A good herbicidal activity is given at values of at least 70)
CN1C(=O)C(C)(Cc2ccccc2)NC(=O)C1=Cc1ccccc1[N+](=O)[O-] (racemic) [Example 44] | good to very good | good to very good |  | 
CCN1C(=O)C(=Cc2ccccc2[N+](=O)[O-])N(C)C(=O)C1(C)Cc1ccccc1 (racemic) [Example 47] | good to very good | good to very good |  | 
Cc1cccc([N+](=O)[O-])c1C=C1C(=O)N(C)C(C)(Cc2ccccc2)C(=O)N1C (racemic) [Example 56] | good to very good | good to very good |  | 
CN1C(=O)C(C)(Cc2ccc(Cl)cc2)N(C)C(=O)C1=Cc1ccccc1C#N (racemic) [Example 137] |  |  |  | herbicidal activity against GALAP [8]: good (A good herbicidal activity is given at values of at least 70)
CN1C(=O)C(C)(Cc2ccc(F)cc2)N(C)C(=O)C1=Cc1ccccc1C#N (racemic) [Example 138] | good to very good | good to very good |  | 
CCC1(Cc2ccccc2)C(=O)N(C)C(=Cc2ccccc2C#N)C(=O)N1C (stereo not shown) [Example 3, 2-(5-Benzyl-5-ethyl-1,4-dimethyl-3,6-dioxopiperazin-2-ylidenemethyl)-benzonitrile] | good to very good |  | good to very good | 
